Laboratory results taken from ChEMBL document CHEMBL4340535, “Antitumor effect of chiral organotelluranes elicited in a murine melanoma model” (Bioorg Med Chem, 2019).
Calls of active or inactive are those of the source. The rule behind the calls is not given here.

Key:
[1] = system: HUVEC; assay: Anti-invasive activity in human HUVEC cells assessed as reduction in invasive potential at 20 uM incubated for 24 hrs by Giemsa staining based matrigel assay; type: functional, cell-based
[2] = system: B16F10Nex2; assay: Induction of morphological changes in mouse B16F10Nex2 cells at 10 uM incubated for 24 hrs by tubulin-Cy2 and TOPRO-3 staining based confocal microscopic method; type: functional, cell-based
[3] = system: B16F10Nex2; assay: Induction of morphological changes in mouse B16F10Nex2 cells assessed as cell rounding at 10 uM incubated for 24 hrs by tubulin-Cy2 and TOPRO-3 staining based confocal microscopic method; type: functional
[4] = system: B16F10Nex2; assay: Inhibition of cell adhesion of mouse B16F10Nex2 cells assessed as reduction in cell adhesion to fibronectin at 2 uM incubated for 3 hrs by toluidine blue staining based assay; type: functional
[5] = system: SK-MEL-25; assay: Cytotoxicity against human SK-MEL-25 cells assessed as reduction in cell viability incubated for 16 hrs by MTT assay; type: functional, cell-based; conditions: for IC50: SK-MEL-25, 16 h
[6] = system: B16F10Nex2; assay: Antitumor activity against mouse B16F10Nex2 cells transplanted in C57BL/6 mouse assessed as reduction in lung metastases at 20 uM, ip administered for 5 non-consecutive days and measured 21 days post transplantation relative to control; type: functional; parameters: scale not given: the % may be the effect or the level left
[7] = target: Cathepsin B (Homo sapiens) (UniProt P07858); assay: Inhibition of human recombinant cathepsin B assessed as second-order inhibition rate constant using Z-RR-MCA as substrate incubated for 10 mins by spectrofluorimetric method
[8] = system: B16F10Nex2; assay: Inhibition of cell adhesion of mouse B16F10Nex2 cells assessed as reduction in cell adhesion to type 1 collagen at 2 uM incubated for 3 hrs by toluidine blue staining based assay; type: functional
[9] = system: B16F10Nex2; assay: Induction of morphological changes in mouse B16F10Nex2 cells assessed as retraction of cell protrusions at 10 uM incubated for 24 hrs by tubulin-Cy2 and TOPRO-3 staining based confocal microscopic method; type: functional
[10] = system: HT-144; assay: Induction of morphological changes in human HT144 cells assessed as reduction in stress fibers formation by measuring remaining cortical actin in close association with the microtubule network at 30 uM incubated for 24 hrs by phalloidin-TRITC, tubulin-Cy2 and TOPRO-3 staining based confocal microscopic method; type: functional, cell-based
[11] = system: HT-144; assay: Cytotoxicity against human HT144 cells assessed as reduction in cell viability incubated for 16 hrs by MTT assay; type: functional, cell-based
[12] = system: A2058; assay: Cytotoxicity against human A2058 cells assessed as reduction in cell viability incubated for 16 hrs by MTT assay; type: functional, cell-based; conditions: for IC50: A2058, 16 h
[13] = system: HT-144; assay: Induction of morphological changes in human HT144 cells assessed as cell rounding at 10 uM incubated for 24 hrs by tubulin-Cy2 and TOPRO-3 staining based confocal microscopic method; type: functional
[14] = system: B16F10Nex2; assay: Antimigratory activity against mouse B16F10Nex2 cells assessed as reduction in cell migration towards wound area at 20 uM measured every hour for 24 hrs by scratch wound-healing assay relative to control; type: functional; conditions: B16F10Nex2, 24 h
[15] = system: HT-144; assay: Induction of morphological changes in human HT144 cells assessed as depolymerisation of F-actin at 10 uM incubated for 24 hrs by tubulin-Cy2 and TOPRO-3 staining based confocal microscopic method; type: functional, cell-based
[16] = system: HT-144; assay: Induction of morphological changes in human HT144 cells assessed as reduction in stress fibers formation by measuring cell rounding at 30 uM incubated for 24 hrs by phalloidin-TRITC, tubulin-Cy2 and TOPRO-3 staining based confocal microscopic method; type: functional
[17] = system: NIH3T3; assay: Cytotoxicity against mouse 3T3 cells assessed as reduction in cell viability incubated for 16 hrs by MTT assay; type: cell-based; conditions: for IC50: Mus musculus, NIH3T3, 16 h; for Activity: mouse, nih3t3, 16 h
[18] = system: HUVEC; assay: Anti-angiogenic activity in human HUVEC cells assessed as inhibition in pro-angiogenic structures formation in presence of fetal calf serum at 0.062 uM incubated for 18 hrs by inverted light microscopy based matrigel assay; type: functional
[19] = target: Cathepsin S (Homo sapiens) (UniProt P25774); assay: Inhibition of human recombinant cathepsin S assessed as second-order inhibition rate constant using Z-FR-MCA as substrate incubated for 10 mins by spectrofluorimetric method
[20] = system: HT-144; assay: Induction of morphological changes in human HT144 cells assessed as retraction of cell protrusions at 10 uM incubated for 24 hrs by tubulin-Cy2 and TOPRO-3 staining based confocal microscopic method; type: functional
[21] = system: HeLa; assay: Cytotoxicity against human HeLa cells assessed as reduction in cell viability incubated for 16 hrs by MTT assay; type: functional, cell-based
[22] = system: HT-144; assay: Induction of morphological changes in human HT144 cells assessed as cell rounding with remaining cortical actin in close association with the microtubule network at 30 uM incubated for 24 hrs by phalloidin-TRITC, tubulin-Cy2 and TOPRO-3 staining based confocal microscopic method; type: functional
[23] = system: SK-MEL-28; assay: Cytotoxicity against human SK-MEL-28 cells assessed as reduction in cell viability incubated for 16 hrs by MTT assay; type: functional, cell-based; conditions: for IC50: SK-MEL-28, 16 h
[24] = system: B16F10Nex2; assay: Inhibition of cell adhesion of mouse B16F10Nex2 cells assessed as reduction in cell adhesion to type 4 collagen at 2 uM incubated for 3 hrs by toluidine blue staining based assay; type: functional
[25] = system: B16F10Nex2; assay: Antitumor activity against mouse B16F10Nex2 cells transplanted in C57BL/6 mouse assessed as reduction in lungs superficial nodules at 20 uM, ip administered every other day for 12 days and measured 21 days post transplantation relative to control; type: functional
[26] = system: HT-144; assay: Induction of morphological changes in human HT144 cells assessed as membrane blebbing at 10 uM incubated for 24 hrs by tubulin-Cy2 and TOPRO-3 staining based confocal microscopic method; type: functional, cell-based
[27] = system: HT-144; assay: Induction of morphological changes in human HT144 cells at 10 uM incubated for 24 hrs by tubulin-Cy2 and TOPRO-3 staining based confocal microscopic method; type: functional, cell-based
[28] = system: MeWo; assay: Cytotoxicity against human MeWo cells assessed as reduction in cell viability incubated for 16 hrs by MTT assay; type: functional, cell-based
[29] = target: Procathepsin L (Homo sapiens) (UniProt P07711); assay: Inhibition of human recombinant cathepsin L expressed in Pichia pastoris assessed as second-order inhibition rate constant using Z-FR-MCA as substrate incubated for 10 mins by spectrofluorimetric method
[30] = system: B16F10Nex2; assay: Inhibition of cell adhesion of mouse B16F10Nex2 cells assessed as reduction in cell adhesion to laminin at 2 uM incubated for 3 hrs by toluidine blue staining based assay; type: functional
[31] = system: B16F10Nex2; assay: Induction of morphological changes in mouse B16F10Nex2 cells assessed as depolymerisation of F-actin at 10 uM incubated for 24 hrs by tubulin-Cy2 and TOPRO-3 staining based confocal microscopic method; type: functional, cell-based
[32] = system: HUVEC; assay: Cytotoxicity against human HUVEC cells assessed as reduction in cell viability incubated for 16 hrs by MTT assay; type: cell-based; conditions: for IC50: Homo sapiens, HUVEC; for Activity: human, huvec
[33] = system: B16F10Nex2; assay: Cytotoxicity against mouse B16F10Nex2 cells assessed as reduction in cell viability incubated for 16 hrs by MTT assay; type: functional, cell-based; conditions: for IC50: B16F10Nex2, 16 h
[34] = system: B16F10Nex2; assay: Induction of morphological changes in mouse B16F10Nex2 cells assessed as membrane blebbing at 10 uM incubated for 24 hrs by tubulin-Cy2 and TOPRO-3 staining based confocal microscopic method; type: functional, cell-based
[35] = system: B16F10Nex2; assay: Anti-invasive activity in mouse B16F10Nex2 cells assessed as reduction in invasive potential at 20 uM incubated for 24 hrs by Giemsa staining based matrigel assay relative to control; type: functional; conditions: B16F10Nex2, 24 h
[36] = system: HUVEC; assay: Anti-angiogenic activity in human HUVEC cells assessed as inhibition in pro-angiogenic structures formation in presence of fetal calf serum at 0.5 uM incubated for 18 hrs by inverted light microscopy based matrigel assay; type: functional
[37] = system: HUVEC; assay: Antimigratory activity against human HUVEC cells assessed as reduction in cell migration towards wound area at 20 uM measured every hour for 24 hrs by scratch wound-healing assay relative to control; type: functional
[38] = system: HUVEC; assay: Anti-angiogenic activity in human HUVEC cells assessed as inhibition in pro-angiogenic structures formation in presence of fetal calf serum at 5 uM incubated for 18 hrs by inverted light microscopy based matrigel assay; type: functional

Chain of Cathepsin S (Homo sapiens) (P25774 115-331 limits assumed): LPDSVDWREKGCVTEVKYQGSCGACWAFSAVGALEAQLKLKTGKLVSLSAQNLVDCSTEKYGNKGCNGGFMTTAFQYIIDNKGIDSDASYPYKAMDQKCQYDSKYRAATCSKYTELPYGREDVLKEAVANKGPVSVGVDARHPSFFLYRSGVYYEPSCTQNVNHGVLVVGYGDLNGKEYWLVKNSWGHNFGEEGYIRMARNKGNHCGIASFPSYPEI
Chain of Procathepsin L (Homo sapiens) (P07711 114-333 limits assumed): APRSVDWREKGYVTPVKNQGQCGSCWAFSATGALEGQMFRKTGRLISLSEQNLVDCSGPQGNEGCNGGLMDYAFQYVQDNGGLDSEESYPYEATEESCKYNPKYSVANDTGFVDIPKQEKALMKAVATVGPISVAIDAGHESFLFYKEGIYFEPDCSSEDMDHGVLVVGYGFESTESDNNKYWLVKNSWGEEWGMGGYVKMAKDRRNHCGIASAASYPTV

`CCCC[Te](Cl)(Cl)c1ccccc1[C@H](C)OC` was tested, and the Activity [1] was “Active”, the Activity [2] was “Active” and the Activity [3] was “Active”. For the same compound, the inhibition [4] was “Active”, the Activity [5] was “Dose-dependent effect” and the IC50 [5] was 2.5 mM. The Activity [6] was 85%, the K [7] was 7400 M⁻¹ s⁻¹ and the inhibition [8] was “Active”. The Activity [9] was “Active”, the Activity [10] was “Active” and the Activity [11] was “Dose-dependent effect”. For the same compound, the Activity [12] was “Dose-dependent effect”, the IC50 [12] was 1.5 mM and the Activity [13] was “Active”. For the same compound, the inhibition at 20 µM [14] was 80%, the Activity [15] was “Active” and the Activity [16] was “Active”. For the same compound, the IC50 [17] was 3.1 mM, the Activity [17] was “Dose-dependent effect” and the inhibition at 0.062 µM [18] was 55%. The K [19] was 600000 M⁻¹ s⁻¹, the Activity [20] was “Active” and the Activity [21] was “Dose-dependent effect”. For the same compound, the IC50 [21] was 0.8 mM, the Activity [22] was “Active” and the Activity [23] was “Dose-dependent effect”. The IC50 [23] was 3.1 mM, the inhibition [24] was “Active” and the “fold change (FC)” value [25] was 7. For the same compound, the Activity [26] was “Active”, the Activity [27] was “Active” and the Activity [28] was “Dose-dependent effect”. For the same compound, the IC50 [28] was 3.2 mM, the K [29] was 8700 M⁻¹ s⁻¹ and the inhibition [30] was “Active”. The Activity [31] was “Active”, the IC50 [32] was 2.8 mM and the Activity [32] was “Dose-dependent effect”. The Activity [33] was “Dose-dependent effect”, the IC50 [33] was 0.9 mM and the Activity [34] was “Active”. The inhibition at 20 µM [35] was 80%.
`CCCC[Te](Cl)(Cl)c1ccccc1[C@@H](C)OC` was tested, and the Activity [1] was “Active”, the Activity [2] was “Active” and the Activity [3] was “Active”. For the same compound, the inhibition [4] was “Active”, the Activity [5] was “Dose-dependent effect” and the IC50 [5] was 18 mM. For the same compound, the Activity [6] was 58%, the K [7] was 3700 M⁻¹ s⁻¹ and the inhibition [8] was “Active”. For the same compound, the Activity [9] was “Active”, the Activity [10] was “Active” and the Activity [11] was “Dose-dependent effect”. For the same compound, the Activity [12] was “Dose-dependent effect”, the IC50 [12] was 5.5 mM and the Activity [13] was “Active”. For the same compound, the inhibition at 20 µM [14] was 80%, the Activity [15] was “Active” and the Activity [16] was “Active”. The IC50 [17] was 11.5 mM, the Activity [17] was “Dose-dependent effect” and the K [19] was 39000 M⁻¹ s⁻¹. The inhibition at 0.5 µM [36] was 45%, the Activity [20] was “Active” and the Activity [21] was “Dose-dependent effect”. For the same compound, the IC50 [21] was 2.3 mM, the inhibition at 20 µM [37] was 33% and the Activity [22] was “Active”. The Activity [23] was “Dose-dependent effect”, the IC50 [23] was 6.2 mM and the inhibition [24] was “Active”. The “fold change (FC)” value [25] was 2, the Activity [26] was “Active” and the Activity [27] was “Active”. For the same compound, the Activity [28] was “Dose-dependent effect”, the IC50 [28] was 9.5 mM and the K [29] was 5500 M⁻¹ s⁻¹. The inhibition [30] was “Active”, the Activity [31] was “Active” and the IC50 [32] was 20.3 mM. For the same compound, the Activity [32] was “Dose-dependent effect”, the Activity [33] was “Dose-dependent effect” and the IC50 [33] was 2.3 mM. For the same compound, the Activity [34] was “Active” and the inhibition at 20 µM [35] was 80%.
`CC(C)C[C@H](NC(=O)[C@H]1O[C@@H]1C(=O)O)C(=O)NCCCCN=C(N)N` [E-64] was tested, and the inhibition at 5 µM [38] was 80%.
